Measurements as given in PMC10762035, “Molecular basis of human trace amine-associated receptor 1 activation” (Nature Communications, 2024).
Residue numbers refer to the chain shown, from its start. “And” between values parts separate entries of the source, which are not always exact repeats. Identical values can stand only once. Like-named read-outs stand apart in the source and are kept apart here.

Experiments:
Type in all cases: cell-based
hTA1 V184P = molecular target: T1, hTA1 V184P (Homo sapiens, UniProt Q96RJ0, V184P); assay: GloSensor cAMP accumulation assay, V184P mutant; conditions: for cAMP accumulation response, single replicate values (source data, Supplementary Figure 5): hTA1 V184P (N=2), log[Compound]
T1 construct: expressed in transfected cells; host or cells: HEK293T
T1 sequence (Q96RJ0 1-339 V184P): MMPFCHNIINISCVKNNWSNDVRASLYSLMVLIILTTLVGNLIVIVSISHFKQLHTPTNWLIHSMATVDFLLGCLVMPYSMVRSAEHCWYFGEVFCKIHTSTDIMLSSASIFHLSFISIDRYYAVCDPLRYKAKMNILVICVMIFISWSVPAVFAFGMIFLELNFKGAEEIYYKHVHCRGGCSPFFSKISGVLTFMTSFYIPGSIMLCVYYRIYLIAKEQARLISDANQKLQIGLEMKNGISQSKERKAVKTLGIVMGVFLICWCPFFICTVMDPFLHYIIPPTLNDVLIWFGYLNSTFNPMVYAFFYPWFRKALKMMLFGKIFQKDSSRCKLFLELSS

hTA1 F195T = molecular target: T2, hTA1 F195T (Homo sapiens, UniProt Q96RJ0, F195T); assay: GloSensor cAMP accumulation assay, F195T mutant;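 note: cells transiently co-expressing HA-FLAG-tagged hTA1 and the GloSensor cAMP biosensor, luminescence read 30 min after agonist addition at room temperature, concentration-response fitted by nonlinear regression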
T2 construct: expressed in transfected cells; host or cells: HEK293T
T2 sequence (Q96RJ0 1-339 F195T): T1 sequence (Q96RJ0 1-339 V184P) with P184V, F195T

hTA1 C88S = molecular target: T3, hTA1 C88S (Homo sapiens, UniProt Q96RJ0, C88S); assay: GloSensor cAMP accumulation assay, C88S mutant; conditions: C88S
T3 construct: expressed in transfected cells; host or cells: HEK293T
T3 sequence (Q96RJ0 1-339 C88S): T1 sequence (Q96RJ0 1-339 V184P) with C88S, P184V

hTA1 I290Y = molecular target: T4, hTA1 I290Y (Homo sapiens, UniProt Q96RJ0, I290Y); assay: GloSensor cAMP accumulation assay, I290Y mutant; conditions: for cAMP accumulation response, normalized (concentration-response source data, single replicate values): hTA1 I290Y (N=3), log[Compound];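 for cAMP accumulation response, normalized (concentration-response source data, single replicate values): normalized to the maximum response of β-PEA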
T4 construct: expressed in transfected cells; host or cells: HEK293T
T4 sequence (Q96RJ0 1-339 I290Y): T1 sequence (Q96RJ0 1-339 V184P) with P184V, I290Y

hTA1 b2N = molecular target: T5, hTA1 b2N (Homo sapiens, UniProt Q96RJ0); assay: GloSensor cAMP accumulation assay, b2N construct; conditions: b2N, n=2
T5 construct: read by me as the first 25 residues of β2AR (N); expressed in transfected cells; host or cells: HEK293T
T5 sequence (Q96RJ0 with tags, fused parts or gaps): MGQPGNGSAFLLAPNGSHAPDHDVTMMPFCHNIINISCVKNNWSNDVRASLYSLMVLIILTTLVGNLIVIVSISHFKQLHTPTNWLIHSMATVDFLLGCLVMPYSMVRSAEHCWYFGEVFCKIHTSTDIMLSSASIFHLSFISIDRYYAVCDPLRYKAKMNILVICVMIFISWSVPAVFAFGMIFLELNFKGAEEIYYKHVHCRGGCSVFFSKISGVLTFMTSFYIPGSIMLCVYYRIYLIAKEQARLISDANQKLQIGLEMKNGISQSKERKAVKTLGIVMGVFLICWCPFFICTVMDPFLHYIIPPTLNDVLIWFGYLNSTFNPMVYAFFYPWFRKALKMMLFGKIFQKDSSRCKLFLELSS

hTA1 C13S = molecular target: T6, hTA1 C13S (Homo sapiens, UniProt Q96RJ0, C13S); assay: GloSensor cAMP accumulation assay, C13S mutant; conditions: for C13S - Normalized Luminescence Counts (N=2): log[Compound], single wells
T6 construct: expressed in transfected cells; host or cells: HEK293T
T6 sequence (Q96RJ0 1-339 C13S): T1 sequence (Q96RJ0 1-339 V184P) with C13S, P184V

## NCCc1ccc(O)cc1 [TYR, tyramine]
hTA1 V184P; V184P
  reduction in potency vs wild type: 4 fold
hTA1 V184P; V184P, n=2, read-out: EC50
  EC50: 1490 nM
hTA1 V184P; V184P, n=2, read-out: Span ± SEM (Emax normalized to β-PEA)
  Emax: 105 ± 5.68%
hTA1 V184P; M = -5
  cAMP accumulation response, single replicate values (source data, Supplementary Figure 5): 66.7204 and 110.557 and 88.2354 and 80.832 and 102.751 and 95.962
hTA1 V184P; M = -5.522
  cAMP accumulation response, single replicate values (source data, Supplementary Figure 5): 68.2965 and 82.5176 and 84.3869 and 52.6087 and 59.3978 and 71.1332
hTA1 V184P; M = -6
  cAMP accumulation response, single replicate values (source data, Supplementary Figure 5): 47.9177 and 50.0802 and 42.1633 and 41.1642 and 31.9504 and 31.2715
hTA1 V184P; M = -6.522
  cAMP accumulation response, single replicate values (source data, Supplementary Figure 5): 19.512 and 25.4864 and 24.1669 and 21.0878 and 21.7667 and 21.1848
hTA1 V184P; M = -7
  cAMP accumulation response, single replicate values (source data, Supplementary Figure 5): 8.113 and 10.3856 and 10.972 and 5.085 and 4.018 and 3.436
hTA1 V184P; M = -7.522
  cAMP accumulation response, single replicate values (source data, Supplementary Figure 5): 1.736 and 1.149 and 1.113 and 1.69 (2×) and 1.5934
hTA1 V184P; M = -8
  cAMP accumulation response, single replicate values (source data, Supplementary Figure 5): 1.479 and 2.432 and 2.102 and -0.4433 and -0.3463 and 0.1386
hTA1 V184P; M = -8.522
  cAMP accumulation response, single replicate values (source data, Supplementary Figure 5): 0.0496 and 0.8926 and 2.065 and -0.3463 and 0.4296 and -0.05538
hTA1 V184P; M = -9
  cAMP accumulation response, single replicate values (source data, Supplementary Figure 5): -0.2803 and 1.809 and 0.9293 and -0.4433 and -0.2494 (2×)
hTA1 V184P; M = -9.522
  cAMP accumulation response, single replicate values (source data, Supplementary Figure 5): -0.3536 and -0.06036 and -0.6835 and -0.05538 (2×) and 0.04161
hTA1 V184P; M = -10
  cAMP accumulation response, single replicate values (source data, Supplementary Figure 5): 0.4894 and -0.09701 and -0.5368 and 0.04161 and -0.3463 and -0.05538
hTA1 V184P; M = -10.522
  cAMP accumulation response, single replicate values (source data, Supplementary Figure 5): -0.4269 and 0.4528 and -0.94 and 0.04161 and 0.5265 and -0.05538
hTA1 V184P; M = -11
  cAMP accumulation response, single replicate values (source data, Supplementary Figure 5): 0.1229 and 0.4528 and 0.0496 and -0.2494 and -0.4433 and 0.1386
hTA1 V184P; M = -11.522
  cAMP accumulation response, single replicate values (source data, Supplementary Figure 5): -0.2436 and 1.039 and -0.2803 and 0.04161 and 0.5265 and 0.3326
hTA1 V184P; M = -12
  cAMP accumulation response, single replicate values (source data, Supplementary Figure 5): -0.1337 and -0.5368 and -0.7568 and 0.1386 and 0.5265 (2×)
hTA1 V184P; M = -12.522
  cAMP accumulation response, single replicate values (source data, Supplementary Figure 5): 1.113 and 0.5994 and -0.5368 and 1.399 and 1.302 and 1.69
hTA1 V184P; hTA1 V184P mutant, Figure 3B source data, each grid row a separate experiment, 3 replicates, read-out: pEC50 values (Mean) (converted)
  EC50: 2180 nM and 1020 nM
hTA1 V184P; hTA1 V184P mutant, β-PEA set to 100, each grid row a separate experiment, 3 replicates
  Emax values, Mean: 99.5188
hTA1 V184P; hTA1 V184P mutant, β-PEA set to 100, each grid row a separate experiment, 3 replicates, read-out: Emax values (Mean)
  Emax: 111%
hTA1 F195T; F195T
  increase in potency vs wild type: 26 fold
hTA1 F195T; F195T mutant, Figure 5B, each row one independent experiment (3 replicates), read-out: pEC50 values, Mean (converted)
  EC50: 10.2 nM and 24.6 nM
hTA1 F195T; F195T mutant, Figure 5B, β-PEA = 100, each row one independent experiment (3 replicates)
  Emax values, Mean: 119.677 and 98.2455
hTA1 F195T; F195T, n=2, read-out: EC50
  EC50: 6.34 nM
hTA1 F195T; F195T, n=2, read-out: Span ± SEM (Emax normalized to β-PEA)
  Emax: 109%
hTA1 C88S; Mean of fit per experiment
  Emax values: 100.851
hTA1 C88S; Mean of fit per experiment, read-out: Emax values
  Emax: 118%
hTA1 C88S; Mean of fit per experiment, read-out: pEC50 values (converted)
  EC50: 442 nM and 317 nM
hTA1 C88S; n=2, read-out: EC50
  EC50: 375 nM
hTA1 C88S; n=2, read-out: Span ± SEM (Emax normalized to β-PEA)
  Emax: 109 ± 8.4%
hTA1 I290Y; I290Y, read-out: EC50
  EC50: 1960 nM
hTA1 I290Y; I290Y, read-out: Span ± SEM (Emax normalized to β-PEA)
  Emax: 99 ± 3.2%
hTA1 I290Y; I290Y, single experiments (3 replicates each), read-out: pEC50 values, Mean (converted)
  EC50: 2120 nM and 1010 nM and 3550 nM
hTA1 I290Y; I290Y, single experiments (3 replicates each), β-PEA = 100
  Emax values, Mean: 103.315 and 92.7474 and 100.92
hTA1 I290Y; M = -5
  cAMP accumulation response, normalized (concentration-response source data, single replicate values): 70.7589 and 112.926 and 76.6069 and 77.3087 and 89.0347 and 68.1478 and 71.4902 and 86.1539 and 63.5944
hTA1 I290Y; M = -5.522
  cAMP accumulation response, normalized (concentration-response source data, single replicate values): 50.1368 and 56.2927 and 58.1394 and 72.545 (2×) and 68.5142 and 46.6748 and 35.395 and 37.651
hTA1 I290Y; M = -6
  cAMP accumulation response, normalized (concentration-response source data, single replicate values): 26.4369 and 46.4433 and 36.2862 and 39.5657 and 32.9698 and 41.0314 and 25.2433 and 19.6034 and 27.4992
hTA1 I290Y; M = -6.522
  cAMP accumulation response, normalized (concentration-response source data, single replicate values): 10.4317 and 18.1265 and 13.2018 and 24.1753 and 16.4801 and 23.4424 and 9.4516 (2×) and 6.068
hTA1 I290Y; M = -7
  cAMP accumulation response, normalized (concentration-response source data, single replicate values): 2.737 and 6.123 and 3.045 and 3.288 (2×) and 0.7233 and 1.556 and -0.7002 and 0.4278
hTA1 I290Y; M = -7.522
  cAMP accumulation response, normalized (concentration-response source data, single replicate values): 0.8902 and 0.2746 and -1.88 and -4.407 and -4.773 and -3.674 and -4.0841 and -1.828 and -2.956
hTA1 I290Y; M = -8
  cAMP accumulation response, normalized (concentration-response source data, single replicate values): -1.264 and 0.8902 and -0.6488 and -2.575 and -3.307 (2×) and -4.0841 (2×) and -5.212
hTA1 I290Y; M = -8.522
  cAMP accumulation response, normalized (concentration-response source data, single replicate values): -1.264 and -0.0332 and 0.5824 and -4.407 and -3.674 and -2.956 (2×) and -4.0841
hTA1 I290Y; M = -9
  cAMP accumulation response, normalized (concentration-response source data, single replicate values): -3.7267 and 0.8902 and -1.88 and 1.823 and 4.021 and -3.674 and -1.828 and -2.956 and -4.0841
hTA1 I290Y; M = -9.522
  cAMP accumulation response, normalized (concentration-response source data, single replicate values): -3.419 and -0.6488 and -1.88 and -6.239 and -4.407 and -2.208 and -2.956 (2×) and -5.212
hTA1 I290Y; M = -10
  cAMP accumulation response, normalized (concentration-response source data, single replicate values): -1.88 and -0.9566 and -1.572 and -6.605 and -4.407 and -2.956 (2×) and -1.828
hTA1 I290Y; M = -10.522
  cAMP accumulation response, normalized (concentration-response source data, single replicate values): -1.572 (2×) and 0.5824
hTA1 b2N; read-out: EC50
  EC50: 151 nM
hTA1 b2N; read-out: Span ± SEM (Emax normalized to β-PEA)
  Emax: 99.5 ± 1%
hTA1 C13S; C13S
  ΔpEC50 values (each mutant value - WT average): -0.3688 and -0.3329
hTA1 C13S; C13S, Mean of fit per experiment
  Emax values: 110.911
hTA1 C13S; C13S, Mean of fit per experiment, read-out: Emax values
  Emax: 93.7%
hTA1 C13S; C13S, n=2, read-out: EC50
  EC50: 931 nM
hTA1 C13S; C13S, n=2, read-out: Span ± SEM (Emax normalized to β-PEA)
  Emax: 102 ± 8.61%
hTA1 C13S; hTA1 C13S, mean of 3 replicates, one line per independent experiment, read-out: pEC50 values, Mean (converted)
  EC50: 970 nM and 893 nM
hTA1 C13S; M = -5
  C13S - Normalized Luminescence Counts (N=2): 78.8304 and 97.2912 and 83.436 and 97.1609 and 112.12 and 105.729
hTA1 C13S; M = -5.522
  C13S - Normalized Luminescence Counts (N=2): 59.6843 and 75.6711 and 68.2867 and 72.4375 and 86.5575 and 83.5764
hTA1 C13S; M = -6
  C13S - Normalized Luminescence Counts (N=2): 42.8222 and 56.3728 and 40.1958 and 58.5139 and 61.7985 and 54.8367
hTA1 C13S; M = -6.522
  C13S - Normalized Luminescence Counts (N=2): 23.1813 and 24.6658 and 21.4304 and 27.8641 and 32.7195 and 30.988
